The text below walks through data of US8835462B2, “Macrocyclic picolinamides as fungicides” (Dow AgroSciences LLC, priority 2012, dated 2014).

The subject of the first experiment is Puccinia triticina. As to the kind of experiment: Fungicide mobility (dropline mobility test), wheat brown rust (PUCCRT). Type of experiment: in vivo. To be noted: 1 ug/leaf; 1 Day Protectant Mobility; disease-free zone as percent of distance from marked line to leaf tip. As to the method:
Evaluation of Fungicide Mobility: Wheat Brown Rust (Puccinia Triticina; Synonym: Puccinia recondita f. sp. Tritici; Bayer Code PUCCRT):
“Yuma” wheat seedlings were used in the test. One mg of compound was dissolved in 9 μl of EC blank (emulsifiable concentrate) and 500 μl of acetone. Acetone was then evaporated overnight by leaving the vial open in a fume hood. Two milliliters of water containing 110 ppm Triton X-100 was added to each vial to prepare application solutions. A […] drop of formulated material was applied to a marked line on the adaxial surface 5 cm from the leaf tip of the primary leaves. The primary leaves were kept in a horizontal position. Each treatment had 6 replicates. Plants were inoculated with PUCCRT 1-day after (1DPM) or 3-day prior to (3DCM) compound applications. When rust was fully expressed on primary leaves on control plants, the zone of treated leaves that was disease-free in the acropetal direction was measured with a ruler and converted to percent of the distance from marked line to leaf tip.
As to `COC(=O)/C=C/O[C@@H]1[C@@H](Cc2ccccc2)COC[C@H](NC(=O)c2nccc(OC)c2O)C(=O)O[C@H]1C` [Compound 27], the “Dropline Mobility Test PUCCRT 1 DPM” value is listed as “B (More than 0-Less than 80)”.
The same measure, in the same setting: the same measure for `COc1ccnc(C(=O)N[C@H]2COC[C@H](Cc3ccccc3)[C@@H](OCCCC(F)(F)F)[C@H](C)OC2=O)c1O` [Compound 18]: “B (More than 0-Less than 80)”; for `COc1ccnc(C(=O)N[C@H]2COC[C@H](Cc3ccccc3)[C@@H](OCCCc3ccccc3)[C@H](C)OC2=O)c1O` [Compound 28]: “B (More than 0-Less than 80)”; for `COc1ccnc(C(=O)N[C@H]2COC[C@H](Cc3ccccc3)[C@@H](OCCC(C)OC)[C@H](C)OC2=O)c1O` (stereo partly drawn) [Compound 45]: “A (80-100)”.

Staying with this experiment, now noted: 1 ug/leaf; 3 Day Curative Mobility; disease-free zone as percent of distance from marked line to leaf tip.
As for `COC(=O)/C=C/O[C@@H]1[C@@H](Cc2ccccc2)COC[C@H](NC(=O)c2nccc(OC)c2O)C(=O)O[C@H]1C` [Compound 27], the “Dropline Mobility Test PUCCRT 3 DCM” value was “B (More than 0-Less than 80)”.
Still for that read-out and setting: the same measure for `COc1ccnc(C(=O)N[C@H]2COC[C@H](Cc3ccccc3)[C@@H](OCCCC(F)(F)F)[C@H](C)OC2=O)c1O` [Compound 18]: “B (More than 0-Less than 80)”; for `COc1ccnc(C(=O)N[C@H]2COC[C@H](Cc3ccccc3)[C@@H](OCCC(C)OC)[C@H](C)OC2=O)c1O` (stereo partly drawn) [Compound 45]: “A (80-100)”.

Another experiment relates to Mycosphaerella graminicola; Anamorph: Septoria tritici. As to the kind of experiment: Leaf blotch of wheat (SEPTTR) fungicidal activity on wheat seedlings. The conditions noted are these: Zymoseptoria tritici, 24 h, 1 Day Protectant, read-out: Disease Control SEPTTR 1 DP. It is filed as in vivo. As to the method: Evaluation of Fungicidal Activity: Leaf Blotch of Wheat (Mycosphaerella Graminicola; Anamorph: Septoria tritici; Bayer Code […]) Technical grades of materials were dissolved in acetone, which were then mixed with nine volumes of water containing 110 ppm Triton X-100. The fungicide solutions were applied onto wheat seedlings using an automated booth sprayer to run-off. All sprayed plants were allowed to air dry prior to further handling. Wheat plants (variety Yuma) were grown from seed in a greenhouse in 50% mineral soil/50% soil-less Metro mix until the first leaf was fully emerged, with 7-10 seedlings per pot. These plants were inoculated with an aqueous spore suspension of Septoria tritici either prior to or after fungicide treatments. After inoculation the plants were kept in 100% relative humidity (one day in a dark dew chamber followed by two to three days in a lighted dew chamber at 20° C.) to permit spores to germinate and infect the leaf. The plants were then transferred to a greenhouse set at 20° C. for disease to develop. When disease symptoms were fully expressed on the 1st leaves of untreated plants, infection levels were assessed on a scale of 0 to 100 percent disease severity. Percent disease control was calculated using the ratio of disease severity on treated plants relative to untreated plants.
For the compound `COCCCO[C@@H]1[C@@H](Cc2ccccc2)COC[C@H](NC(=O)c2nccc(OC)c2O)C(=O)O[C@H]1C` [Compound 14], the pest or weed control at 100 ppm was in the range of 80 to 100%.
Same read-out and setting: the same measure for `COC(=O)CCO[C@@H]1[C@@H](Cc2ccccc2)COC[C@H](NC(=O)c2nccc(OC)c2O)C(=O)O[C@H]1C` [Compound 11]: 0 to 80%; for `COC(=O)CCO[C@@H]1[C@@H](Cc2ccccc2)COC[C@H](NC(=O)c2nccc(OC)c2OCOC(C)=O)C(=O)O[C@H]1C` [Compound 12]: 0 to 80%; for `COC(=O)/C=C/O[C@@H]1[C@@H](Cc2ccccc2)COC[C@H](NC(=O)c2nccc(OC)c2O)C(=O)O[C@H]1C` [Compound 27]: 0 to 80%.
As to `COc1ccnc(C(=O)N[C@H]2COC[C@H](Cc3ccccc3)[C@@H](OC3CCCC3)[C@H](C)OC2=O)c1O` [Compound 105], the pest or weed control at 100 ppm was in the range of 80 to 100%.
For the compound `COc1ccnc(C(=O)N[C@H]2COC[C@H](Cc3ccccc3)[C@@H](OCCCC(F)(F)F)[C@H](C)OC2=O)c1O` [Compound 18], the pest or weed control at 100 ppm lay in the range of 80 to 100%.
On the same count and under the same terms, the same measure for `COc1ccnc(C(=O)N[C@H]2COC[C@H](Cc3ccccc3)[C@@H](OCCCc3ccccc3)[C@H](C)OC2=O)c1O` [Compound 28]: 0 to 80%; for `COc1ccnc(C(=O)N[C@H]2COC[C@H](Cc3ccccc3)[C@@H](OCCC(=O)N(C)C)[C@H](C)OC2=O)c1O` [Compound 13]: 0 to 80%; for `COc1ccnc(C(=O)N[C@H]2COC[C@H](Cc3ccccc3)[C@@H](OCCC(C)OC)[C@H](C)OC2=O)c1O` (stereo partly drawn) [Compound 45]: 80 to 100%.

The experiment is the same for the next values; noted with them: Zymoseptoria tritici, 72 h, 3 Day Curative, read-out: Disease Control SEPTTR 3 DC.
For `COCCCO[C@@H]1[C@@H](Cc2ccccc2)COC[C@H](NC(=O)c2nccc(OC)c2O)C(=O)O[C@H]1C` [Compound 14], the pest or weed control at 100 ppm was in the range of 0 to 80%.
`COC(=O)CCO[C@@H]1[C@@H](Cc2ccccc2)COC[C@H](NC(=O)c2nccc(OC)c2O)C(=O)O[C@H]1C` [Compound 11]: the pest or weed control at 100 ppm was in the range of 0 to 80%.
The same measure, in the same setting: the same measure for `COC(=O)CCO[C@@H]1[C@@H](Cc2ccccc2)COC[C@H](NC(=O)c2nccc(OC)c2OCOC(C)=O)C(=O)O[C@H]1C` [Compound 12]: 0 to 80%; for `COC(=O)/C=C/O[C@@H]1[C@@H](Cc2ccccc2)COC[C@H](NC(=O)c2nccc(OC)c2O)C(=O)O[C@H]1C` [Compound 27]: 0 to 80%; for `COc1ccnc(C(=O)N[C@H]2COC[C@H](Cc3ccccc3)[C@@H](OC3CCCC3)[C@H](C)OC2=O)c1O` [Compound 105]: 80 to 100%.
In the case of `COc1ccnc(C(=O)N[C@H]2COC[C@H](Cc3ccccc3)[C@@H](OCCCC(F)(F)F)[C@H](C)OC2=O)c1O` [Compound 18], the pest or weed control at 100 ppm fell in the range of 80 to 100%.
For `COc1ccnc(C(=O)N[C@H]2COC[C@H](Cc3ccccc3)[C@@H](OCCCc3ccccc3)[C@H](C)OC2=O)c1O` [Compound 28], the pest or weed control at 100 ppm was 0 to 80%.
Turning to `COc1ccnc(C(=O)N[C@H]2COC[C@H](Cc3ccccc3)[C@@H](OCCC(=O)N(C)C)[C@H](C)OC2=O)c1O` [Compound 13], the pest or weed control at 100 ppm was in the range of 0 to 80%.
In the case of `COc1ccnc(C(=O)N[C@H]2COC[C@H](Cc3ccccc3)[C@@H](OCCC(C)OC)[C@H](C)OC2=O)c1O` (stereo partly drawn) [Compound 45], the pest or weed control at 100 ppm was in the range of 80 to 100%.

For a further experiment, the system named is Puccinia triticina. As to the kind of experiment: Wheat brown rust (PUCCRT) fungicidal activity on wheat seedlings. Type of experiment: in vivo. To be noted: 24 h, 1 Day Protectant, read-out: Disease Control PUCCRT 1 DP. As to the method: Technical grades of materials were dissolved in acetone, which were then mixed with nine volumes of water containing 110 ppm Triton X-100. The fungicide solutions were applied onto wheat seedlings using an automated booth sprayer to run-off. All sprayed plants were allowed to air dry prior to further handling. Wheat plants (variety Yuma) were grown from seed in a greenhouse in 50% mineral soil/50% soil-less Metro mix until the first leaf was fully emerged, with 7-10 seedlings per pot. These plants were inoculated with an aqueous spore suspension of Septoria tritici either prior to or after fungicide treatments. After inoculation the plants were kept in 100% relative humidity (one day in a dark dew chamber followed by two to three days in a lighted dew chamber at 20° C.) to permit spores to germinate and infect the leaf. The plants were then transferred to a greenhouse set at 20° C. for disease to develop. When disease symptoms were fully expressed on the 1st leaves of untreated plants, infection levels were assessed on a scale of 0 to 100 percent disease severity. Percent disease control was calculated using the ratio of disease severity on treated plants relative to untreated plants. Evaluation of Fungicidal Activity: Wheat Brown Rust (Puccinia triticina; Synonym: Puccinia recondita f. sp. tritici; Bayer Code PUCCRT) Wheat plants (variety Yuma) were grown from seed in a greenhouse in 50% mineral soil/50% soil-less Metro mix until the first leaf was fully emerged, with 7-10 seedlings per pot. These plants were inoculated with an aqueous spore suspension of Puccinia triticina either prior to or after fungicide treatments. After inoculation the plants were kept in a dark dew room at 22° C. with 100% relative humidity overnight to permit spores to germinate and infect the leaf. The plants were then transferred to a greenhouse set at 24° C. for disease to develop. Fungicide formulation, application and disease assessment followed the procedures as described in the Example A.
As to `COCCCO[C@@H]1[C@@H](Cc2ccccc2)COC[C@H](NC(=O)c2nccc(OC)c2O)C(=O)O[C@H]1C` [Compound 14], the pest or weed control at 100 ppm lay within 80 to 100%.
As to `COC(=O)CCO[C@@H]1[C@@H](Cc2ccccc2)COC[C@H](NC(=O)c2nccc(OC)c2O)C(=O)O[C@H]1C` [Compound 11], the pest or weed control at 100 ppm fell in the range of 0 to 80%.
For the compound `COC(=O)CCO[C@@H]1[C@@H](Cc2ccccc2)COC[C@H](NC(=O)c2nccc(OC)c2OCOC(C)=O)C(=O)O[C@H]1C` [Compound 12], the pest or weed control at 100 ppm lay in the range of 80 to 100%.
In the case of `COC(=O)/C=C/O[C@@H]1[C@@H](Cc2ccccc2)COC[C@H](NC(=O)c2nccc(OC)c2O)C(=O)O[C@H]1C` [Compound 27], the pest or weed control at 100 ppm was 80 to 100%.
The same measure, in the same setting: the same measure for `COc1ccnc(C(=O)N[C@H]2COC[C@H](Cc3ccccc3)[C@@H](OC3CCCC3)[C@H](C)OC2=O)c1O` [Compound 105]: 80 to 100%; for `COc1ccnc(C(=O)N[C@H]2COC[C@H](Cc3ccccc3)[C@@H](OCCCC(F)(F)F)[C@H](C)OC2=O)c1O` [Compound 18]: 80 to 100%.
As to `COc1ccnc(C(=O)N[C@H]2COC[C@H](Cc3ccccc3)[C@@H](OCCCc3ccccc3)[C@H](C)OC2=O)c1O` [Compound 28], the pest or weed control at 100 ppm fell in the range of 80 to 100%.
`COc1ccnc(C(=O)N[C@H]2COC[C@H](Cc3ccccc3)[C@@H](OCCC(C)OC)[C@H](C)OC2=O)c1O` (stereo partly drawn) [Compound 45]: the pest or weed control at 100 ppm was in the range of 80 to 100%.

The experiment is the same for the next values; noted with them: 72 h, 3 Day Curative, read-out: Disease Control PUCCRT 3 DC.
On to `COCCCO[C@@H]1[C@@H](Cc2ccccc2)COC[C@H](NC(=O)c2nccc(OC)c2O)C(=O)O[C@H]1C` [Compound 14], for which the pest or weed control at 100 ppm lay within 80 to 100%.
On the same count and under the same terms, the same measure for `COC(=O)CCO[C@@H]1[C@@H](Cc2ccccc2)COC[C@H](NC(=O)c2nccc(OC)c2O)C(=O)O[C@H]1C` [Compound 11]: 0 to 80%.
In the case of `COC(=O)CCO[C@@H]1[C@@H](Cc2ccccc2)COC[C@H](NC(=O)c2nccc(OC)c2OCOC(C)=O)C(=O)O[C@H]1C` [Compound 12], the pest or weed control at 100 ppm lay within 0 to 80%.
On to `COC(=O)/C=C/O[C@@H]1[C@@H](Cc2ccccc2)COC[C@H](NC(=O)c2nccc(OC)c2O)C(=O)O[C@H]1C` [Compound 27], for which the pest or weed control at 100 ppm lay within 0 to 80%.
The same measure, in the same setting: in the case of `COc1ccnc(C(=O)N[C@H]2COC[C@H](Cc3ccccc3)[C@@H](OC3CCCC3)[C@H](C)OC2=O)c1O` [Compound 105] it was 80 to 100%.
`COc1ccnc(C(=O)N[C@H]2COC[C@H](Cc3ccccc3)[C@@H](OCCCC(F)(F)F)[C@H](C)OC2=O)c1O` [Compound 18]: the pest or weed control at 100 ppm was 80 to 100%.
Regarding `COc1ccnc(C(=O)N[C@H]2COC[C@H](Cc3ccccc3)[C@@H](OCCCc3ccccc3)[C@H](C)OC2=O)c1O` [Compound 28], the pest or weed control at 100 ppm lay within 80 to 100%.
With `COc1ccnc(C(=O)N[C@H]2COC[C@H](Cc3ccccc3)[C@@H](OCCC(=O)N(C)C)[C@H](C)OC2=O)c1O` [Compound 13], the pest or weed control at 100 ppm fell in the range of 0 to 80%.
For `COc1ccnc(C(=O)N[C@H]2COC[C@H](Cc3ccccc3)[C@@H](OCCC(C)OC)[C@H](C)OC2=O)c1O` (stereo partly drawn) [Compound 45], the pest or weed control at 100 ppm is 80 to 100%.
